Molecular target: T1, human apelin receptor (Homo sapiens, UniProt P35414)
T1 construct: host or cells: CHO cells
T1 sequence (P35414 1-380): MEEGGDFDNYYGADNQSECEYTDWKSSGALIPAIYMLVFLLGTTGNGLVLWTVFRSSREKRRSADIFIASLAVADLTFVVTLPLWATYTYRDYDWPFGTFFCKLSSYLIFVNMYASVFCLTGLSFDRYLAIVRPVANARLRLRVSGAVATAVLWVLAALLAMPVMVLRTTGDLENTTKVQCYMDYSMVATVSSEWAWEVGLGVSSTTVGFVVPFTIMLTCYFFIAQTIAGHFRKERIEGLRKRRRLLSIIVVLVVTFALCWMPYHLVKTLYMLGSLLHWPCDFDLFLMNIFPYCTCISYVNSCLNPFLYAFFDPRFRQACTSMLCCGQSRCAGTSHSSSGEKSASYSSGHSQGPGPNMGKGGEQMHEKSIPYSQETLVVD
Assay: Measurement of apelin receptor agonist activity (cell-based assay determining the amount of intracellular cAMP)
Conditions: CHO cells stably expressing the human apelin receptor, Forskolin 10 μM, 30 minutes, 100% efficacy = [Pyr1]-apelin-13 0.300 μM, concentration giving 50% efficacy
Experimental: Measurement of Apelin Receptor Agonist Activity
The apelin receptor agonist activity of the compound represented by formula (I) or (II) of the present invention was measured by cell-based assay for determining the amount of intracellular cAMP.
CHO cells (DiscoveRx Corp.) stably expressing the human apelin receptor were inoculated to wells of a microtiter plate and cultured overnight at 37° C. under conditions of 5% CO2.
Each test compound and Forskolin were added to the wells at the same time. Specifically, the test compound dissolved in DMSO was diluted with a Forskolin-containing buffer [DMEM/F-12, HEPES, no phenol red (#11039, GIBCO)] to prepare a mixed solution containing the test compound at a final concentration of […] (common ratio: 3, serial dilution: 11), Forskolin at a final concentration of 10 μM, and DMSO at a final concentration of 0.3% v/v, which was then added to the wells (N═4).
After 30 minutes, the cells were lysed, and HitHunter cAMP XS+ Assay #90-0075L (DiscoveRx Corp.) was added to the cell lysate. The mixture was left overnight, and the resulting chemiluminescence signals were then detected using Analyst GT (Molecular Devices LLC.) to determine the amount of cAMP.
The amount of cAMP determined by the addition of a positive control [Pyr1]-apelin-13 (final concentration: 0.300 μM) and Forskolin (final concentration: 10 μM) at the same time was used as an index to define 100% efficacy. The amount of cAMP determined by the addition of Forskolin (final concentration: 10 μM) alone was used as an index to define 0% efficacy.
A dose response curve was prepared from the final concentration of the test compound and the determined amount of cAMP using Sigmaplot 12.0.

| EC50 [nM] | SMILES |
| --- | --- |
| 1530 | COc1cccc(OC)c1-n1c(SCc2cccc(C(=O)O)c2)nnc1-c1ccc(C)o1 [Example 80, 3-({[4-(2,6-Dimethoxyphenyl)-5-(5-methylfuran-2-yl)-4H-1,2,4-triazol-3-yl]sulfanyl}methyl)benzoic acid] |
| 71 | COC(=O)c1ccc(CSc2nnc(-c3ccc(C)o3)n2-c2c(OC)cccc2OC)cc1 [Example 81, Methyl 4-({[4-(2,6-dimethoxyphenyl)-5-(5-methylfuran-2-yl)-4H-1,2,4-triazol-3-yl]sulfanyl}methyl)benzoate] |
| 5460 | COc1cccc(OC)c1-n1c(SCc2ccc(C(=O)O)cc2)nnc1-c1ccc(C)o1 [Example 82, 4-({[4-(2,6-Dimethoxyphenyl)-5-(5-methylfuran-2-yl)-4H-1,2,4-triazol-3-yl]sulfanyl}methyl)benzoic acid] |
| 219 | COc1cccc(OC)c1-n1c(SCC(N)=O)nnc1-c1ccc(C)o1 [Example 83, 2-{[4-(2,6-Dimethoxyphenyl)-5-(5-methylfuran-2-yl)-4H-1,2,4-triazol-3-yl]sulfanyl}acetamide] |
| 267 | COc1cccc(OC)c1-n1c(SCC#N)nnc1-c1ccc(C)o1 [Example 84, {[4-(2,6-Dimethoxyphenyl)-5-(5-methylfuran-2-yl)-4H-1,2,4-triazol-3-yl]sulfanyl}acetonitrile] |
| 253 | COc1cccc(OC)c1-n1c(SC)nnc1-c1ccc(C)o1 [Example 85, 4-(2,6-Dimethoxyphenyl)-3-(5-methylfuran-2-yl)-5-(methylsulfanyl)-4H-1,2,4-triazole] |
| 2020 | COc1cccc(OC)c1-n1c(-c2ccc(C)o2)nnc1S(C)(=O)=O [Example 86, 4-(2,6-Dimethoxyphenyl)-3-(5-methylfuran-2-yl)-5-(methylsulfonyl)-4H-1,2,4-triazole] |
| 744 | COc1cccc(OC)c1-n1c(OCC(OC)OC)nnc1-c1ccc(C)o1 [Example 87, 3-(2,2-Dimethoxyethoxy)-4-(2,6-dimethoxyphenyl)-5-(5-methylfuran-2-yl)-4H-1,2,4-triazole] |
| 35 | COc1cccc(OC)c1-n1c(OCC(=O)O)nnc1-c1ccc(C)o1 [Example 88, {[4-(2,6-Dimethoxyphenyl)-5-(5-methylfuran-2-yl)-4H-1,2,4-triazol-3-yl]oxy}acetic acid] |

The next lines start with the compound.

| SMILES | EC50 [nM] |
| --- | --- |
| COc1cccc(OC)c1-n1c(SCC(=O)O)nnc1-c1ccco1 [Example 61, {[4-(2,6-Dimethoxyphenyl)-5-(furan-2-yl)-4H-1,2,4-triazol-3-yl]sulfanyl}acetic acid] | 412 |
| COc1cccc(OC)c1-n1c(SCC(=O)O)nnc1-c1ccoc1 [Example 62, {[4-(2,6-Dimethoxyphenyl)-5-(furan-3-yl)-4H-1,2,4-triazol-3-yl]sulfanyl}acetic acid] | 808 |
| COc1cccc(OC)c1-n1c(SCC(=O)O)nnc1-c1cc(C)c(C)o1 [Example 63, {[4-(2,6-Dimethoxyphenyl)-5-(4,5-dimethylfuran-2-yl)-4H-1,2,4-triazol-3-yl]sulfanyl}acetic acid] | 716 |
| COc1cccc(OC)c1-n1c(/C=C/C(=O)O)nnc1-c1ccc(C)o1 [Example 64, Ammonium (2E)-3-[4-(2,6-dimethoxyphenyl)-5-(5-methylfuran-2-yl)-4H-1,2,4-triazol-3-yl]prop-2-enoate] | 52 |
| COc1cccc(OC)c1-n1c(/C=C/C(=O)O)nnc1-c1ccc(C)o1 [Example 65, Sodium (2E)-3-[4-(2,6-dimethoxyphenyl)-5-(5-methylfuran-2-yl)-4H-1,2,4-triazol-3-yl]prop-2-enoate] | 75 |
| CCOC(=O)COCc1nnc(-c2ccc(C)o2)n1-c1c(OC)cccc1OC [Example 66, Ethyl {[4-(2,6-dimethoxyphenyl)-5-(5-methylfuran-2-yl)-4H-1,2,4-triazol-3-yl]methoxy}acetate] | 817 |
| COc1cccc(OC)c1-n1c(COCC(=O)O)nnc1-c1ccc(C)o1 [Example 67, {[4-(2,6-Dimethoxyphenyl)-5-(5-methylfuran-2-yl)-4H-1,2,4-triazol-3-yl]methoxy}acetic acid] | 774 |
| COc1cccc(OC)c1-n1c(CSc2nnc[nH]2)nnc1-c1ccc(C)o1 [Example 68, 4-(2,6-Dimethoxyphenyl)-3-(5-methylfuran-2-yl)-5-[(4H-1,2,4-triazol-3-ylsulfanyl)methyl]-4H-1,2,4-triazole] | 1330 |
| COc1cccc(OC)c1-n1c(CS(=O)(=O)c2nnc[nH]2)nnc1-c1ccc(C)o1 [Example 69] | 696 |
| COc1cccc(OC)c1-n1c(CN)nnc1-c1ccc(C)o1 [Example 70, 1-[4-(2,6-Dimethoxyphenyl)-5-(5-methylfuran-2-yl)-4H-1,2,4-triazol-3-yl]methanamine] | 384 |
| COc1cccc(OC)c1-n1c(CNS(C)(=O)=O)nnc1-c1ccc(C)o1 [Example 71, N-{[4-(2,6-Dimethoxyphenyl)-5-(5-methylfuran-2-yl)-4H-1,2,4-triazol-3-yl]methyl}methanesulfonamide] | 1070 |
| COc1cccc(OC)c1-n1c(CN(C(=O)c2ccc(C)cc2)C(=O)c2ccc(C)cc2)nnc1-c1ccc(C)o1 [Example 72, N-{[4-(2,6-Dimethoxyphenyl)-5-(5-methylfuran-2-yl)-4H-1,2,4-triazol-3-yl]methyl}-4-methyl-N-(4-methylbenzoyl)benzamide] | 95 |
| COc1cccc(OC)c1-n1c(CC#N)nnc1-c1ccc(C)o1 [Example 73, [4-(2,6-Dimethoxyphenyl)-5-(5-methylfuran-2-yl)-4H-1,2,4-triazol-3-yl]acetonitrile] | 1020 |
| COc1cccc(OC)c1-n1c(SCc2nnn[nH]2)nnc1-c1ccc(C)o1 [Example 74, 5-({[4-(2,6-Dimethoxyphenyl)-5-(5-methylfuran-2-yl)-4H-1,2,4-triazol-3-yl]sulfanyl}methyl)-1H-tetrazole] | 98 |
| COc1cccc(OC)c1-n1c(SCc2cccnn2)nnc1-c1ccc(C)o1 [Example 75, 3-({[4-(2,6-Dimethoxyphenyl)-5-(5-methylfuran-2-yl)-4H-1,2,4-triazol-3-yl]sulfanyl}methyl)pyridazine] | 128 |
| COc1cccc(OC)c1-n1c(SCc2nccs2)nnc1-c1ccc(C)o1 [Example 76, 4-(2,6-Dimethoxyphenyl)-3-(5-methylfuran-2-yl)-5-[(1,3-thiazol-2-ylmethyl)sulfanyl]-4H-1,2,4-triazole] | 158 |
| COC(=O)c1ccccc1CSc1nnc(-c2ccc(C)o2)n1-c1c(OC)cccc1OC [Example 77, Methyl 2-({[4-(2,6-dimethoxyphenyl)-5-(5-methylfuran-2-yl)-4H-1,2,4-triazol-3-yl]sulfanyl}methyl)benzoate] | 557 |
| COc1cccc(OC)c1-n1c(SCc2ccccc2C(=O)O)nnc1-c1ccc(C)o1 [Example 78, 2-({[4-(2,6-Dimethoxyphenyl)-5-(5-methylfuran-2-yl)-4H-1,2,4-triazol-3-yl]sulfanyl}methyl)benzoic acid] | 34 |
| COC(=O)c1cccc(CSc2nnc(-c3ccc(C)o3)n2-c2c(OC)cccc2OC)c1 [Example 79, Methyl 3-({[4-(2,6-dimethoxyphenyl)-5-(5-methylfuran-2-yl)-4H-1,2,4-triazol-3-yl]sulfanyl}methyl)benzoate] | 208 |

Source: patent US11155525B2 (Sanford Burnham Prebys Medical Discovery Institute, priority 2015, dated 2021)
